One data set concerns the target T1, CYP2D6 (Homo sapiens, UniProt P10635).
T1 construct: tissue BD-Gentest 452117; host or cells: human liver microsomes
Put plainly: CYP inhibition assay in human liver microsome. The data set is classed as in vitro ADME. The conditions noted are these: human liver microsomes, probe dextromethorphan, 10µM test compound, dextromethorphan substrate, <0: not or weak inhibitor, read-out: CYP 2D6 inhibition %@10µM. The procedure, abridged:
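HLM mixed with CYP2D6 substrate, preincubated 10 min at 37 °C, started with NADPH regenerating system and run 10 min at 37 °C before acetonitrile quench. Metabolite measured by RapidFire MS/MS against D3-dextrorphan internal standard. % inhibition scaled between DMSO and concentrated-inhibitor controls.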
A general note: Microsomes from liver hold many membrane-bound enzymes, among them those of drug oxidation.

Another data set deals with T2, hTLR9 (Homo sapiens, UniProt Q9NR96).
T2 sequence (Q9NR96 26-1032): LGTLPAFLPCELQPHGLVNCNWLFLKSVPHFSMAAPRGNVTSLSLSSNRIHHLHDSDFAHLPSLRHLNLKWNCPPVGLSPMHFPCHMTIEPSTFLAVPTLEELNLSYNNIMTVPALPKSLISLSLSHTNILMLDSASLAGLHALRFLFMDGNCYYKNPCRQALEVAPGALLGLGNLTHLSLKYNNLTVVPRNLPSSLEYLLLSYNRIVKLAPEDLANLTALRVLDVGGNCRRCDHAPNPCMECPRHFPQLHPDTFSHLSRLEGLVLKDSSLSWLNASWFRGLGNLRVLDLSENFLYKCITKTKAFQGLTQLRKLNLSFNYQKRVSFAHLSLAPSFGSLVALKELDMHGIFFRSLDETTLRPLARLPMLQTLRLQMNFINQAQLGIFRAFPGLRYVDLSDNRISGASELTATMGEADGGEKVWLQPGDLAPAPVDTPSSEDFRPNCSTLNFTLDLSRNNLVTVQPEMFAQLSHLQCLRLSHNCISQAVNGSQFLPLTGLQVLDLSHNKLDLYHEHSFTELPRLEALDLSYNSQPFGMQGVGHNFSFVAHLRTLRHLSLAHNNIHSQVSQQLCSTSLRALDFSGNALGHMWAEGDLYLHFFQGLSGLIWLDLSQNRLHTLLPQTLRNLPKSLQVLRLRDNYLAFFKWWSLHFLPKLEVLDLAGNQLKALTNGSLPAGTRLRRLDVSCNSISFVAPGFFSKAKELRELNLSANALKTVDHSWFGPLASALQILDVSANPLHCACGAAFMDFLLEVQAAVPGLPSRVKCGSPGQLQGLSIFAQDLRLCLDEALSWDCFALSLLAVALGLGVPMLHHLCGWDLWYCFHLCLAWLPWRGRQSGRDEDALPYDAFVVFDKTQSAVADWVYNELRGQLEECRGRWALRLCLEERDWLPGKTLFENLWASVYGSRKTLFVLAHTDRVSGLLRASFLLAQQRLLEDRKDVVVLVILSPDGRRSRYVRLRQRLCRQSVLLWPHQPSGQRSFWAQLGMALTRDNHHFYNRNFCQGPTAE
More on the design: host or cells: HEK. The conditions noted are these: data disclosed in US20150105370; read-out: HEK/hTLR9 IC50; cited from earlier work.

As usually defined, the inhibition is the relative decrease from the control value, in per cent.

T1 sequence (P10635 whole entry): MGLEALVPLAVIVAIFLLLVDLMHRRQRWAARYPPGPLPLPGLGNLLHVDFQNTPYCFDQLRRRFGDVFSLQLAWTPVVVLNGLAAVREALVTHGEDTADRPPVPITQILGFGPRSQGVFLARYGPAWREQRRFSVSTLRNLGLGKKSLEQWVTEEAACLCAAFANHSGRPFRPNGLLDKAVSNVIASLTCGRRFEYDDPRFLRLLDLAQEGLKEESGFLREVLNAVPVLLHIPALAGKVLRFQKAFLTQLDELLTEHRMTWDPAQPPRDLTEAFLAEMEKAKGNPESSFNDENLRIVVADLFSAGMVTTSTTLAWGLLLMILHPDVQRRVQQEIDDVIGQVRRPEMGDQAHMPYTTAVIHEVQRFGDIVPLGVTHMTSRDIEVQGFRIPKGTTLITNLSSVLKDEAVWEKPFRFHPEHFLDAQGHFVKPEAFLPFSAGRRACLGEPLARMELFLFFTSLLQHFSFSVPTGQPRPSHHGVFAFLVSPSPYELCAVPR

For the molecule `C[C@@H]1CN(c2ccc(C#N)c3nccnc23)C[C@H](CN2CCN(c3cc4c(cn3)CCN[C@@H]4C)CC2)O1` (single isomer, unassigned) [Example 87], the inhibition at 10 min, 10 µM at CYP2D6 was -2.5%.
With `C[C@@H]1CN(c2ccc(C#N)c3nccnc23)C[C@H](CN2CCN(c3cc4c(cn3)CCN[C@H]4C)CC2)O1` (single isomer, unassigned) [Example 88], the inhibition at 10 min, 10 µM on CYP2D6 was found to be 9.5%.
Consider `C[C@@H]1CN(c2ccc(C#N)c3ncccc23)C[C@H](CN2CCN(c3ccncc3)CC2)O1` [ER-888286, reference compound], for which the IC50 at hTLR9 was over 2000 nM. Besides, at CYP2D6, the inhibition at 10 min, 10 µM came out at 52.5%.
For `C[C@@H]1CN(c2ccc(C#N)c3ncccc23)C[C@H](CN2CCN(c3ccc4c(c3)CNCC4)CC2)O1` [Example 9, 5-[(2R,6S)-2-methyl-6-[[4-(1,2,3,4-tetrahydroisoquinolin-7-yl)piperazin-1-yl]methyl]morpholin-4-yl]quinoline-8-carbonitrile], the inhibition at 10 min, 10 µM on CYP2D6 was -2.5%.
`C[C@@H]1CN(c2ccc(C#N)c3ncccc23)C[C@H](CN2CCN(c3cnc4c(c3)CNC4)CC2)O1` [Example 10, 5-[(2S,6R)-2-[[4-(6,7-dihydro-5H-pyrrolo[3,4-b]pyridin-3-yl)piperazin-1-yl]methyl]-6-methyl-morpholin-4-yl] quinoline-8-carbonitrile]: at CYP2D6, the inhibition at 10 min, 10 µM was 2.5%.

The record behind these values is EP3807270B1, “NOVEL HETEROARYL HETEROCYCLYL COMPOUNDS FOR THE TREATMENT OF AUTOIMMUNE DISEASE” (F. Hoffmann-La Roche AG, priority 2018, dated 2019).
